Measurements from patent publication US8889699B2, “5-fluorouracil derivative” (Delta-Fly Pharma, Inc., priority 2009, dated 2014).

Key:
[1] = system: Human colon cancer strain (KM12C)
Protocol: (§1) The resulting product was stirred with a stirrer at room temperature for about 10 minutes. […] The proliferated strain was extracted, cut into about 2 to 3 mm square pieces with scissors in physiological saline, and subcutaneously inoculated to the right axillary region of rats of the same strain, 5 to 6 weeks of age, using a transplantation needle. […] Then, drug administration was initiated from the next day. Each of the test liquids shown in (a) to (b) above was administered orally to the rats in each of the test drug groups using a sonde for oral administration at a dose of 0.1 ml per 10 g body weight once a day for 14 continuous days. In the same manner as the above, the cancer-bearing rats in the control group were subjected to oral administration of only 0.5% HPMC liquid for 14 continuous days.
(§2) The tumor volume of each rat in each group before the initiation of the treatment, on day 3, day 5, day 8 (1 week after), day 11, and day 15 (2 weeks after), i.e., after termination of the administration, was calculated using Equation 1 below, and respective relative tumor volume (RTV) relative to the tumor volume at the time of initiation of the treatment was calculated. In relation to the antitumor effect, the average value of the tumor proliferation inhibition ratio (IR; %) was calculated from the average tumor volume of each treatment group on day 15 (after termination of the treatment) relative to that of the control group on day 15, using Equation 2. […] Along therewith, a weight change ratio was calculated from the body weight of the rats at the time of the termination of the drug administration relative to the body weight of the rats at the time of the initiation of the administration, using Equation 3. […] A coagulation inhibitor was added to each of the collected blood samples, and the white blood cell count, red blood cell count, and platelet count were measured using a hemocytometer.

[2] = system: human gastric cancer strain (SC-2)
Protocol: as §1, §2

DPD = molecular target: T1, DPD (Rattus norvegicus, UniProt O89000); experiment: DPD inhibitory action in vitro (enzyme reaction, tritium-labeled 5-FU as substrate); type: biochemical; settings: Conc. 0.02 μM; Table 5
T1 construct: the obtained supernatant was used as a DPD enzyme solution or an OPRT enzyme solution; from tissue; host or cells: liver of 8-week old SD rat; 105,000 g supernatant of homogenate
T1 sequence (O89000 1-1025): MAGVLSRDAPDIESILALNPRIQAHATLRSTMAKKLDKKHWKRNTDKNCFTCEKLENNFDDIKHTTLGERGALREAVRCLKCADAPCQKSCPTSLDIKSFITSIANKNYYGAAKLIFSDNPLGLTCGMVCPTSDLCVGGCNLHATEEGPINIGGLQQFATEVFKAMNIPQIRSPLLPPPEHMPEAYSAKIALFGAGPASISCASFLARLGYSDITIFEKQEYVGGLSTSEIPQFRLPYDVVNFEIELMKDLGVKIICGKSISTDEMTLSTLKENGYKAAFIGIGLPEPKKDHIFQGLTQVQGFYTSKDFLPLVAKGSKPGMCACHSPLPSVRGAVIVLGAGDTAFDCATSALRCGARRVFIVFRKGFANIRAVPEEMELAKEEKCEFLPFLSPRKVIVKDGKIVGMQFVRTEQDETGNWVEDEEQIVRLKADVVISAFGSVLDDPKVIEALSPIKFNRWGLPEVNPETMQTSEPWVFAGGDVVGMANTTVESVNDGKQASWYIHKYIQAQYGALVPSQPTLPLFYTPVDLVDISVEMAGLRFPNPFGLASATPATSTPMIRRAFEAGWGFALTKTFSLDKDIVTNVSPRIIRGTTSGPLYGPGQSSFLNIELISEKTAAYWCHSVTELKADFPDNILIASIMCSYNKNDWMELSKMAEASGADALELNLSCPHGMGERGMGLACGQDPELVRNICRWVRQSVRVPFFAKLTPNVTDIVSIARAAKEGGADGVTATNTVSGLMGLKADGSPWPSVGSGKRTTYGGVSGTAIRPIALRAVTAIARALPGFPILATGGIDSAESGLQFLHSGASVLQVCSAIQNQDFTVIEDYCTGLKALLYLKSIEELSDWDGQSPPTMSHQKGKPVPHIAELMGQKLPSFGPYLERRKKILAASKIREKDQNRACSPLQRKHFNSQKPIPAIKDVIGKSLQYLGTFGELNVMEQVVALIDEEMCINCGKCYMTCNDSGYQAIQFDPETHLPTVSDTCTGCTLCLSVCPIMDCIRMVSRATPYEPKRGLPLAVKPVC

[3] = oral, 14 days, Compound I-11 71 to 88 mg/kg/day, S-1 20 to 22.5 mg/kg/day

SMILES | antitumor effect ([1]; oral, 14 days, Compound I-10 51 to 77 mg/kg/day, S-1 15 to 22.5 mg/kg/day, FIG. 2-1) | diarrhea ([1]; rat, in vivo) | platelet count relative to that of the control group ([1]; rat, in vivo) | weight loss ([1]; rat, in vivo) | white blood cell count, reduced to % of that of the control group ([2]; 71 to 88 mg/kg/day orally for 2 weeks, FIG. 1-2) | platelet count relative to that of the control group ([2]; oral, 2 weeks, Compound I-11 71 to 88 mg/kg/day, S-1 20 to 22.5 mg/kg/day, FIG. 1-2) | toxic death ([2]; oral, 14 days, Compound I-11 71 to 88 mg/kg/day) | diarrhea [2, 3] | weight loss [2, 3] | antitumor effect ([2]; oral, 14 days, Compound I-11 71 to 88 mg/kg/day, S-1 20 to 22.5 mg/kg/day, FIG. 1-1) | DPD Inhibitory Activity: Activity (DPD) | inhibition at 0.02 µM (DPD)
CCOCn1cc(F)c(=O)n(C(=O)c2cccc(C(=O)Oc3cc(OC(=O)c4cc(OC(C)=O)nc(OC(C)=O)c4)c(Cl)cn3)c2)c1=O [Compound I-10, 3-{3-[4-(2,6-diacetyloxyisonicotinoyloxy)-5-chloro-2-pyridyloxycarbonyl]benzoyl}-1-ethoxymethyl-5-fluorouracil] | high antitumor effects in a dose-dependent manner | not observed | the same as that of the control group | not observed |  |  |  |  |  |  |  | 
CCOCn1cc(F)c(=O)n(C(=O)c2cccc(C(=O)Oc3cc(OC(=O)c4cc(OC(=O)CC)nc(OC(=O)CC)c4)c(Cl)cn3)c2)c1=O [Compound I-11, 3-{3-[4-(2,6-dipropionyloxyisonicotinoyloxy)-5-chloro-2-pyridyloxycarbonyl]benzoyl}-1-ethoxymethyl-5-fluorouracil] |  |  |  |  | about 50% | almost the same as that of the control group | not observed | not observed | not observed | high antitumor effects in a dose-dependent manner | 0.705 nmol/mL/min | 0%
